The assay concerns the target recombinant human SOS1 polypeptide (amino acids 560-1049) (Homo sapiens (Human), UniProt Q07889). The assay can be described thus: biochemical. In kind it is binding. Conditions: read-out: Ki, Inhibition of Labeled Tracer Binding to SOS1.
Where [1] appears, read: HTRF displacement, Cy5 labelled tracer, Morrison equation for competitive binding.

Counter-ions that a name gives are not always drawn. Like-named read-outs stand apart in the source and are kept apart here.

recombinant human SOS1 polypeptide (amino acids 560-1049), sequence (Q07889 560-1049): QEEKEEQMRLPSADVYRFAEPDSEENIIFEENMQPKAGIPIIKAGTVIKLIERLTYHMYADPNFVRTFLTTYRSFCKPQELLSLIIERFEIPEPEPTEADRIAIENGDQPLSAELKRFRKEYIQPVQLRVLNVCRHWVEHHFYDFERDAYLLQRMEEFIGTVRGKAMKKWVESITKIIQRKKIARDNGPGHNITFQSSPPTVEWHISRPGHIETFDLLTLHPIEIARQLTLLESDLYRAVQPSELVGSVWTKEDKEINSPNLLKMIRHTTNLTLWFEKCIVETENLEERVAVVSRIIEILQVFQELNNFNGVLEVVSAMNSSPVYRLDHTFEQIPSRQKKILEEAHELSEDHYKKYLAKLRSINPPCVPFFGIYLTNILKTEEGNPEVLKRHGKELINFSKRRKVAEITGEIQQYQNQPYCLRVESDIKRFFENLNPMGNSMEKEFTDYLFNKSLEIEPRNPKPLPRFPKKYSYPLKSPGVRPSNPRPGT
Experimental: The ability of a compound of Formula (I) to bind to SOS1 was measured using a HTRF displacement assay. […] After a 1-hour incubation at room temperature, the HTRF signal was measured using Clairostar plate reader (BMG Labtech) according to the manufacturer's instructions. Excitation filter EX-TR was used, and emission 1 was detected at 650-610 nm and emission 2 detected at 620-610 nm. The HTRF ratio was calculated using the formula: [emission 1/emission 2]*10000.
Background signals were calculated from well with a 10 μM inhibitor, known to inhibit 100% at that concentration. The background subtracted signals were converted to % binding relative to DMSO controls. Data were analyzed using XLFIT software (IDBS) using a Morrison equation for competitive binding and Ki's were generated compound of Formula (I).

In the case of `Cc1c([C@@H](C)Nc2nnc(C)c3cnc(N4C[C@H]5C[C@@H]4CO5)cc23)cc(F)cc1C(F)(F)F` [Example 12-109], the Ki under setting [1] turned out to be 2.61 nM. Consider `Cc1nnc(N[C@H](C)c2cccc(C(F)(F)F)c2F)c2cc(N3CCN4CCOC[C@@H]4C3)ncc12` [Example 12-63], for which the Ki under setting [1] was found to be 0.83 nM. The same measure, in the same setting: as for `Cc1c(C#N)cccc1[C@@H](C)Nc1nnc(C)c2cnc(N3CC4(CCCN4C)C3)cc12` [Example 12-88], the figure is 2.03 nM; as for `Cc1c([C@@H](C)Nc2nnc(C)c3cnc(N4CC5CC(C4)O5)cc23)cc(F)cc1C(F)(F)F` [Example 12-113], 2.62 nM; as for `Cc1c(C#N)cccc1[C@@H](C)Nc1nnc(C)c2cnc(N3C[C@H]4CC[C@@H]3CN4CCO)cc12` [Example 12-89], 0.25 nM.

In the case of `Cc1c(C#N)cccc1[C@@H](C)Nc1nnc(C)c2cnc(N3CCN4CCC[C@@H]4C3)cc12` [Example 12-73], the Ki under setting [1] amounted to 1.67 nM. `CNCc1cccc([C@@H](C)Nc2nnc(C)c3cc(OC)c(OC)cc23)c1C` [Example 5-3, (R)-6,7-dimethoxy-4-methyl-N-(1-(2-methyl-3-((methylamino)methyl)phenyl)ethyl)phthalazin-1-amine]: the Ki under setting [1] came out at 390 nM. For the molecule `Cc1c(C#N)cccc1[C@@H](C)Nc1nnc(C)c2cnc(N3CCN4CCCC[C@@H]4C3)cc12` [Example 12-86], the Ki under setting [1] was 0.98 nM.

With `Cc1c(F)cccc1[C@@H](C)Nc1nnc(C)c2cnc(N3CC(C)(O)C3)cc12` [Example 12-81], under setting [1], the inhibitory constant (Ki) was 29 nM.

Consider `Cc1nnc(N[C@H](C)c2cccc(C(F)(F)F)c2F)c2cc(N3CCN(C)CC3)ncc12` [Example 12-67], for which the Ki under setting [1] worked out at 0.36 nM. For `Cc1c(C#N)cc(F)cc1[C@@H](C)Nc1nnc(C)c2cnc(N3CC(C)(N(C)C)C3)cc12` [Example 12-108], the Ki under setting [1] was 22.1 nM. On to `Cc1c(F)cccc1[C@@H](C)Nc1nnc(C)c2cnc(N3CC4CC(C3)O4)cc12` [Example 12-126], for which the Ki under setting [1] was 14 nM.

Turning to `Cc1nnc(N[C@H](C)c2cc(N)cc(C(F)(F)F)n2)c2cc(N3CCN(C)CC3)ncc12` [Example 16-12, (R)-N-(1-(4-amino-6-(trifluoromethyl)pyridin-2-yl)ethyl)-4-methyl-7-(4-methylpiperazin-1-yl)pyrido[3,4-d]pyridazin-1-amine], the Ki under setting [1] amounted to 9.58 nM. Consider `Cc1c(C#N)cccc1[C@@H](C)Nc1nnc(C)c2cnc(N3CC4(CCOC4)C3)cc12` [Example 12-71], for which the inhibition constant Ki under setting [1] came to 4.48 nM.

`Cc1nnc(N[C@H](C)c2cccc(C#N)c2C(F)(F)F)c2cc(N3C[C@H]4C[C@@H]3CO4)ncc12` [Example 12-127]: the Ki under setting [1] came out at 6.08 nM. Regarding `CCN1CCN(c2cc3c(N[C@H](C)c4cccc(C(F)F)c4F)nnc(C)c3cn2)CC1` [Example 12-102], the Ki under setting [1] stood at 0.25 nM.

Regarding `Cc1c([C@@H](C)Nc2nnc(C)c3cnc(N4CCN5CCOC[C@@H]5C4)cc23)cc(F)cc1C(F)(F)F` [Example 12-112], under setting [1], the Ki stood at 2.2 nM. Same read-out and setting: the result for `Cc1nnc(N[C@H](C)c2cc(F)cc(C#N)c2F)c2cc(N3CC(C)(N(C)C)C3)ncc12` [Example 12-122] reads 170 nM. The same measure, in the same setting: as for `Cc1c(C#N)cc(F)cc1[C@@H](C)Nc1nnc(C)c2cnc(N3CC(C)(O)C3)cc12` [Example 12-107], the figure is 35.6 nM.

In the case of `CCN1CCN(c2cc3c(N[C@H](C)c4cccc(C(F)(F)F)c4F)nnc(C)c3cn2)CC1` [Example 12-68], the Ki under setting [1] amounted to 0.37 nM. Regarding `Cc1c(C#N)cccc1[C@@H](C)Nc1nnc(C)c2cc(F)c(N3CCN(C)CC3)cc12` [Example 18-3, (R)-3-(1-((6-fluoro-4-methyl-7-(4-methylpiperazin-1-yl)phthalazin-1-yl)amino)ethyl)-2-methylbenzonitrile], under setting [1], the Ki was determined as 1.37 nM. The same measure, in the same setting: the result for `Cc1nnc(N[C@H](C)c2cccc(C(F)F)c2F)c2cc(N3CCN4CCOC[C@@H]4C3)ncc12` [Example 12-100] reads 1.07 nM. Still for that read-out and setting: as for `Cc1nnc(N[C@H](C)c2cc(F)cc(C#N)c2F)c2cc(N3CCC(C)(N(C)C)CC3)ncc12` [Example 12-123], the figure is 50.4 nM. Take `Cc1c(C#N)cccc1[C@@H](C)Nc1nnc(C)c2ccc(N3CC4(CCOC4)C3)cc12` [Example 10-80, (R)-2-methyl-3-(1-((4-methyl-7-(6-oxa-2-azaspiro[3.4]octan-2-yl)phthalazin-1-yl)amino)ethyl)benzonitrile Hydrochloride salt]: the Ki is 5.75 nM. As for `CNCc1cccc([C@@H](C)Nc2nnc(C)c3ccc(N4CCOCC4)cc23)c1C` [Example 6-8, (R)-4-methyl-N-(1-(2-methyl-3-((methylamino)methyl)phenyl)ethyl)-7-morpholinophthalazin-1-amine], the Ki under setting [1] came out at 39.2 nM. In the case of `Cc1nnc(N[C@H](C)c2cccc(F)c2Cl)c2cc(N3CCN4CCOC[C@@H]4C3)ncc12` [Example 12-74], the Ki under setting [1] amounted to 10.5 nM. On the same count and under the same terms, the result for `Cc1nnc(N[C@H](C)c2cccc(F)c2F)c2cc(N3CC4CC(C3)O4)ncc12` [Example 12-98] reads 19 nM. Still for that read-out and setting: the result for `Cc1nnc(N[C@H](C)c2cc(N)cc(C(F)(F)F)n2)c2cc(N3CC(C)(N(C)C)C3)ncc12` [Example 16-11, (R)-N-(1-(4-amino-6-(trifluoromethyl)pyridin-2-yl)ethyl)-7-(3-(dimethylamino)-3-methylazetidin-1-yl)-4-methylpyrido[3,4-d]pyridazin-1-amine] reads 108 nM.

As to `Cc1c(C#N)cccc1[C@@H](C)Nc1nnc(C)c2ccc(N3CC(C)(N4CCOCC4)C3)cc12` [Example 10-83, (R)-2-methyl-3-(1-((4-methyl-7-(3-methyl-3-morpholinoazetidin-1-yl)phthalazin-1-yl)amino)ethyl)benzonitrile Formate salt], the Ki was found to be 4.54 nM. For the molecule `Cc1nnc(N[C@H](C)c2cc(F)cc(C#N)c2F)c2cc(N3CCN4CCOC[C@@H]4C3)ncc12` [Example 12-120], the inhibitory constant (Ki) under setting [1] came to 49.8 nM.

Take `Cc1nnc(N[C@H](C)c2cc(F)cc(C#N)c2F)c2cc(N3CC4CC(C3)O4)ncc12` [Example 12-121]: the Ki under setting [1] came out at 39.2 nM. The same measure, in the same setting: the result for `Cc1c(C#N)cccc1[C@@H](C)Nc1nnc(C)c2ccc(N3CCN4CCC[C@@H]4C3)cc12` [Example 10-81, 3-((R)-1-((7-((R)-hexahydropyrrolo[1,2-a]pyrazin-2(1H)-yl)-4-methylphthalazin-1-yl)amino)ethyl)-2-methylbenzonitrile] reads 0.9 nM; that for `Cc1nnc(N[C@H](C)c2cc(F)cc(C#N)c2F)c2cc(N3C[C@H]4C[C@@H]3CO4)ncc12` [Example 12-114], 69.3 nM.

As to `Cc1c(C#N)cccc1[C@@H](C)Nc1nnc(C)c2ccc(N3CC4(CCCN4C)C3)cc12` [Example 10-84, (R)-2-methyl-3-(1-((4-methyl-7-(5-methyl-2,5-diazaspiro[3.4]octan-2-yl)phthalazin-1-yl)amino)ethyl)benzonitrile], the Ki under setting [1] was determined as 2.01 nM. Same read-out and setting: the result for `CNCc1nnc(N[C@H](C)c2cccc(C#N)c2C)c2cc(N3C[C@H]4C[C@@H]3CO4)ncc12` [Example 14-3, 3-((R)-1-((7-((1R,4R)-2-oxa-5-azabicyclo[2.2.1]heptan-5-yl)-4-((methylamino)methyl)pyrido[3,4-d]pyridazin-1-yl)amino)ethyl)-2-methylbenzonitrile] reads 14.5 nM; that for `Cc1c(C#N)cccc1[C@@H](C)Nc1nnc(C)c2cnc(N3CC[C@H](N(C)C)C3)cc12` [Example 12-69], 0.93 nM.

As a reminder, the Ki is the dissociation constant of the complex between target and ligand, obtained from inhibition or displacement.

Values taken from patent publication US11702418B2, “SOS1 inhibitors” (priority 2019, dated 2023).
